# Measured values from paper PMC6356742, “Novel Characteristics of Mitochondrial Electron Transport Chain from Eimeria tenella” (Genes, 2019).
# Entries after “also recorded” stand apart in the source; their conditions may differ. Like-named read-outs stand apart in the source and are kept apart here.
# How the values were obtained:
# [1] = tested on: P. y. yoelii complex II; settings: cited from earlier work; for IC50: P. y. yoelii, read-out: IC50 of Succinate-cyt c Activity
# [2] = tested on: bovine complex II; settings: cited from earlier work
# [3] = tested on: Succinate-cyt c activity; settings: Rat; cited from earlier work
# [4] = target: succinate-cytochrome c reductase activity (Complex II-III); experiment: Inhibition of succinate-cytochrome c reductase activity (Complex II-III) of E. tenella mitochondria-rich fraction; format: biochemical, Eimeria tenella; settings: for IC50: E. tenella mitochondria-rich fraction, complex II-III activity, read-out: IC50 of Succinate-cyt c Activity
# Protocol: (§1) All enzyme assays were performed using 5–10 µg of the mitochondria-rich fraction using black quartz cuvettes in 0.6 mL reaction mixture at 25 °C. The reagents used in each assay were mixed with a reaction buffer containing 50 mM potassium phosphate (pH 7.4) (KPi Buffer) and 2 mM EDTA.
# Cytochrome c–linked NADH, G3P, malate, succinate, and DHO dehydrogenase activities were determined in a reaction mixture containing 30 µM horse heart cytochrome c and 2 mM KCN at 550 nm (ε = 19 mM^−1 cm^−1) by adding 0.2 mM NADH, 5 mM malate, 5 mM G3P, 8.3 mM succinate, and 0.4 mM DHO, respectively, into the reaction buffer.
# (§2) […]; As the positive control for complex II-III inhibition assay, 0.1 μM of stigmatellin (complex III inhibitor) was used.
# [5] = target: E. tenella complex II (Eimeria tenella, UniProt U6KGY0+U6KWN9); experiment: Inhibition of succinate-dUQ (SQR) activity of E. tenella complex II; format: biochemical; settings: for Inhibition of E. tenella complex II: even at higher concentration of 50 μM
# Protocol: as §1
# Individual G3PDH, MQO, SDH, and DHODH activities were assayed at 278 nm in the presence of each substrate as described above, however, instead of cytochrome c, 50 µM of decylubiquinone (dUQ) (ε = 15 mM^−1 cm^−1) was added. The NDH-2 activity was measured following the consumption of NADH at 340 nm.
# as §2
# [6] = tested on: Ascaris suum complex II; settings: cited from earlier work
# [7] = tested on: Succinate-cyt c activity; settings: Porcine; cited from earlier work
# [8] = tested on: complex II; set-up: method as in PMID 19505951; settings: read-out: IC50 for complex II from Trypanosoma brucei; cited from earlier work
# [9] = tested on: complex II; set-up: method as in PMID 19505951; settings: read-out: IC50 for complex II from Leishmania tarentolae; cited from earlier work
# [10] = tested on: complex II; set-up: method as in PMID 19505951; settings: read-out: IC50 for complex II from T. cruzi; cited from earlier work
# [11] = tested on: complex II; set-up: method as in PMID 19505951; settings: read-out: IC50 for complex II from L. donovani; cited from earlier work
# [12] = tested on: NADH oxidase activity (NDH-2-Complex III-IV); experiment: NADH oxidase activity (NDH-2-Complex III-IV) of E. tenella mitochondria-rich fraction; format: biochemical, Eimeria tenella; settings: for NADH oxidase specific activity after addition: consecutive additions: 2 mM KCN, then 2 mM fumarate, then 5 mM malonate, without additions 5.9 ± 0.9, experiment C
# Sequence of E. tenella complex II (U6KGY0 entry or part of it): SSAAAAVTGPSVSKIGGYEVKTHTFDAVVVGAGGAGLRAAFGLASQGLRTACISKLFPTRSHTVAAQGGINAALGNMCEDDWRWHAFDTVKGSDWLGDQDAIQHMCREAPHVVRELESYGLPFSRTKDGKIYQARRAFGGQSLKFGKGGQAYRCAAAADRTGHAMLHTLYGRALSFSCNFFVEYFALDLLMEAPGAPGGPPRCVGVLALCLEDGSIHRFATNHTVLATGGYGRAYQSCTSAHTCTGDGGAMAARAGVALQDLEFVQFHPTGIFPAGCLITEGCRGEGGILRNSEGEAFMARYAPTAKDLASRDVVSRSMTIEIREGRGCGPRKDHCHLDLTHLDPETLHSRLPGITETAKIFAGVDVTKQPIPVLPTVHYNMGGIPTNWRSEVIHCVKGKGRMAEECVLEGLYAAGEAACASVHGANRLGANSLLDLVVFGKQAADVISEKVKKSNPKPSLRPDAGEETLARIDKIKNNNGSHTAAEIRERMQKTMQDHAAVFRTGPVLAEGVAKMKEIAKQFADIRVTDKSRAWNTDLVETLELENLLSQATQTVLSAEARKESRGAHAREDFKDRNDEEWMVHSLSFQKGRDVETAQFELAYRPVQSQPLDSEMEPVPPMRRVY
# Sequence of E. tenella complex II (U6KWN9 entry or part of it): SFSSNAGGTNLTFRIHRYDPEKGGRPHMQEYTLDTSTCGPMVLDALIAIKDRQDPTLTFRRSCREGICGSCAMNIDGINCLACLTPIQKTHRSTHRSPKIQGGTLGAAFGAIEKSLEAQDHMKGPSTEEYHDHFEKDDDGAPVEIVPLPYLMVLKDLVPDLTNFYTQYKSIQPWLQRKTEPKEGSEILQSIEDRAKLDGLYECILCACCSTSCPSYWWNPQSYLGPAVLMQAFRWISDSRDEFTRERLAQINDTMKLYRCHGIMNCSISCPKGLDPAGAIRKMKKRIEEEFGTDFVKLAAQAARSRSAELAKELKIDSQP
smiles,measurement,setting,value
"COc1[nH]c(=O)c(C(=O)[C@@H](C)C[C@H](C)[C@@H](Cl)CCl)c(O)c1OC [Atpenin A5, atpenin A5]",IC50,[1],4.2 ± 0.2 µM
same,Fold lower sensitivity of P. y. yoelii complex II to atpenin A5,[1],about 600 fold
same,IC50,[2],4 nM
same,IC50,[3],0.007 ± 0.0003 µM
same,IC50,[4],> 50 µM
"CC1=C(C(=O)Nc2ccccc2)SCCO1 [Carboxin, carboxin]",IC50,[1],3.6 ± 1 µM
same,IC50,[2],1000 nM
same,Inhibition of E. tenella complex II,[5],did not inhibit
same,IC50,[3],3.8 ± 0.1 µM
same,IC50,[4],> 50 µM
"CC(C)Oc1cccc(NC(=O)c2ccccc2C(F)(F)F)c1 [Flutolanil, flutolanil]",IC50,[6],81 nM
same,IC50,[1],> 100 µM
same,IC50,[7],> 50 µM
same,Inhibition of E. tenella complex II,[5],did not inhibit
same,IC50,[3],> 100 µM
same,IC50,[4],> 50 µM
"Cc1cc(O)c2c(c1)O[C@@]1(C)CC[C@H]3C(C)(C)CCC[C@]34CO[C@@H]2[C@H]41 [Siccanin, siccanin]",IC50,[8],368 nM
same,IC50,[9],190 nM
same,IC50,[10],1480 nM
same,IC50,[7],861 ± 822 µM
same,Inhibition of the SQR activity of complex II,[5]; E. tenella,did not inhibit
same,IC50,"[5]; E. tenella, SQR activity of complex II, read-out: IC50 determined for succinate-dUQ activity",> 50 µM
same,Inhibition of E. tenella complex II,[5],did not inhibit
same,IC50,[11],1170 nM
same,IC50,[3],9.3 ± 1 µM
same,IC50,[4],4 ± 0.6 µM
"C/C=C(C)/C=C/C=C/[C@H](OC)[C@@H](C)[C@@H](OC)[C@@H](C)CCc1oc2c(O)c(OC)cc(OC)c2c(=O)c1C [Stigmatellin, stigmatellin]",Percentage inhibition of succinate-cyt c activity,"[4]; E. tenella, 100 nM stigmatellin, positive control for complex III inhibition",78.4 ± 13.1% ^2
O=C(O)/C=C/C(=O)O [fumarate],NADH oxidase specific activity after addition,[12],1.3 ± 0.3 μmol/min/mg protein
O=C(O)CC(=O)O [malonate],Effect on NADH oxidase / fumarate-dependent NADH oxidation activity,"[12]; 2 mM KCN on NADH oxidase, 5 mM malonate on fumarate-restored activity in presence of KCN",abolished; also recorded: completely inhibited
same,NADH oxidase specific activity after addition,[12],−0.5 ± 0.3 μmol/min/mg protein
